# Laboratory results taken from US11198699B2 (ALIGOS THERAPEUTICS, INC., priority 2019, dated 2021).
# How the values were obtained:
# HepG2 hepatoma cells = test: Cell proliferation assay, HepG2 (CellTiter-Glo, 7 days); format: cell-based; conditions: HepG2, 7 days, CellTiter-Glo 2.0
# Protocol: (§1) HepG2 hepatoma cells (ATCC, HB-8065) were maintained in DMEM with high glucose (Lonza, 12-914F) supplemented with 10% fetal bovine serum (FBS; Biowest, S181B-500) and 2 mM L-glutamine (Biowest, X0551-100) at 37° C. and 5% CO2. A549 lung carcinoma cells (ATCC, CCL-185) were maintained in F-12K medium (ThermoFisher 21127030) supplemented with 10% FBS at 37° C. and 5% CO2. Exponentially growing HepG2 or A549 were plated in white, clear-bottom 96-well plates (Corning, 3903) at a cell density of 2000 (HepG2) or 350 (A549) cells per well in 199 μL of HepG2 medium. Next, 1 μL of a 5-fold 9-point dilution series of test compound in DMSO was added to the different wells. Cells were incubated at 37° C. 5% CO2 for 7 days. Cell viability was assessed on day 7 with the CellTiter-Glo 2.0 Cell Viability assay kit (Promega, G9243) to quantify the intracellular amounts of ATP: first, 100 μL of cell culture medium was removed from each well, next 100 μL of CellTiter-Glo® 2.0 Reagent was added and plates were shaken for 2 minutes on an orbital shaker. After 10 minutes stabilization at room temperature, read-out was performed on a ThermoFisher VarioSkan Lux plate reader. Counts were normalized to DMSO control (0% inhibition) and the cytotoxic control (100% inhibition) and EC50 values were determined in GraphPad Prism 8 using the [Agonist] vs. response—Variable slope (four parameters) function.
# (§2) As shown by the data of Table 2, compounds of Formula (I) have activity in this assay. A value of ‘A’ in the table below indicates an EC50 of <20 nM, a value of ‘B’ indicates an EC50≥20 nM to <100 nM, a value of ‘C’ indicates an EC50 value of EC50≥100 nM to <1000 nM and a value of ‘D’ indicates an EC50≥1000 nM
# [1] = system: A549 lung carcinoma cells; test: Cell proliferation assay, A549 (CellTiter-Glo, 7 days); format: cell-based; conditions: A549, 7 days, CellTiter-Glo 2.0
# Protocol: as §1, §2
# PRMT5/MEP50 = PRMT5/MEP50 (Homo sapiens (Human), UniProt O14744); test: PRMT5/MEP50 enzyme inhibition assay, Assay 2 (384-well, MALDI mass spectrometry, histone H4 1-21 peptide); format: biochemical; conditions: 1 μM SAM, 0.1 μM histone H4 1-21 peptide, 18-hour incubation at rt
# Protocol: Compounds were tested for inhibition of methyltransferase activity in 384-well plate assay format using mass spectrometry technology. In this enzyme inhibition assay, compounds were tested in a 11-dose IC50 mode with 3-serial dilution, in duplicate, starting at 1, 10, or 100 μM. Reactions were carried out at 1 μM SAM and 0.1 μM histone H4 1-21 peptide as substrates for methyl transfer. Following an 18-hour incubation at rt, the reaction was stopped with 0.5% formic acid. Products of the reaction were captured while unreacted substrates were washed away, prior to MALDI mass spectrometry detection and analysis. Percent enzyme activity was calculated based on no inhibitor DMSO control as 100% activity. EC50 values were determined in GraphPad Prism 8 using the [inhibitor] vs. response—Variable slope (four parameters) function.
# Compounds of Formula (I) show activity in this assay. A value of ‘A’ in the table below indicates an IC50 of <1 nM, a value of ‘B’ indicates an IC50≥1 nM to ≤100 nM, and a value of ‘C’ indicates an IC50 value of >100 nM.
# Chain of PRMT5/MEP50 (O14744 whole entry): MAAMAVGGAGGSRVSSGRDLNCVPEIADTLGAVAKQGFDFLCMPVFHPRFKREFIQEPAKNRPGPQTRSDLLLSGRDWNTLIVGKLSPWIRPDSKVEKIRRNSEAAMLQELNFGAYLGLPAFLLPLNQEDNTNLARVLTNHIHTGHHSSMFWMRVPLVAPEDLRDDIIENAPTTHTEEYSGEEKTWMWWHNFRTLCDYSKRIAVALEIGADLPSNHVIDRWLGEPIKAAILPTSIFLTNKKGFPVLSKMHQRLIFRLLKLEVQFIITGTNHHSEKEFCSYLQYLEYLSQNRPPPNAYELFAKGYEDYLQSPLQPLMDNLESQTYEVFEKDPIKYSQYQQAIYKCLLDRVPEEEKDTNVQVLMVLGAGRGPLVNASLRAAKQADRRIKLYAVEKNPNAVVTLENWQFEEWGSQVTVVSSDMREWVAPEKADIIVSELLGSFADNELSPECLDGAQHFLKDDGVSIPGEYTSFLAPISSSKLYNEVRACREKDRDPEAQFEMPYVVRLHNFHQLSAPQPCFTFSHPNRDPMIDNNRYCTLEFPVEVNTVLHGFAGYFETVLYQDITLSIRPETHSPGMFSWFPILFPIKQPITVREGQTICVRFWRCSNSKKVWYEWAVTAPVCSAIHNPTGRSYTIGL
# Chain of PRMT5/MEP50 (Q9BQA1 whole entry partner): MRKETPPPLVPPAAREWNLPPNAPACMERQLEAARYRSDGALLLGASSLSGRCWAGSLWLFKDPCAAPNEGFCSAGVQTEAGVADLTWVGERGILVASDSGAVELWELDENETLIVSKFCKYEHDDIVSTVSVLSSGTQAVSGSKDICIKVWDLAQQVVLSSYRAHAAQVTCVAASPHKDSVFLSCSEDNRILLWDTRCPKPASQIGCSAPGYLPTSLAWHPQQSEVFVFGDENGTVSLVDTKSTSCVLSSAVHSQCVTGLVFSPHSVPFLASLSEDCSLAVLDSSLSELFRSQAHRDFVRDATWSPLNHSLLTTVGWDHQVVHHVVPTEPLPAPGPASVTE
Compound,"EC50 (HepG2 hepatoma cells; Homo sapiens, 168 h) [nM]","EC50 ([1]; Homo sapiens, A549, 168 h) [nM]",IC50 (PRMT5/MEP50) [nM],EC50 (HepG2 hepatoma cells) [nM],EC50 [1] [nM]
CC(C)C(=O)O[C@H]1[C@H](n2ccc3c(N)ncnc32)C[C@](C)(CCc2ccc3nc(N)ccc3c2)[C@H]1OC(=O)C(C)C [Compound 26-A],,,> 100,≥ 1000,≥ 1000
"CCCCCOC(=O)Nc1nc2cc(CC[C@@]3(C)C[C@@H](n4ccc5c(N)ncnc54)[C@H](O)[C@@H]3O)ccc2cc1Cl [Compound 33, pentyl (7-(2-((1S,2R,3S,4R)-4-(4-amino-7H-pyrrolo[2,3-d]pyrimidin-7-yl)-2,3-dihydroxy-1-methylcyclopentyl)ethyl)-3-chloroquinolin-2-yl)carbamate]",< 20,< 20,,,
C[C@]1(CCc2ccc3nc(N)ccc3c2)C[C@@H](n2ccc3c(N)ncc(F)c32)[C@H](O)[C@@H]1O [Compound 21-A],≥ 1000,≥ 1000,1 to 100,,
"C[C@]1(CCc2cc(F)c3cc(Cl)c(N)nc3c2)C[C@@H](n2ccc3c(N)ncc(F)c32)[C@H](O)[C@@H]1O [Compound 34, (1S,2R,3S,5R)-3-[2-(2-amino-3-chloro-5-fluoro-7-quinolyl)ethyl]-5-(4-amino-7-fluoro-pyrrolo[3,2-c]pyridin-1-yl)-3-methyl-cyclopentane-1,2-diol]",< 20,< 20,,,
"CC(C)C(=O)O[C@H]1[C@H](n2ccc3c(N)ncnc32)C[C@](C)(CCc2ccc3ccc(N)nc3c2)[C@H]1OC(=O)C(C)C [Compound 26, (1S,2R,3S,5R)-5-(4-amino-7H-pyrrolo[2,3-d]pyrimidin-7-yl)-3-(2-(2-aminoquinolin-7-yl)ethyl)-3-methylcyclopentane-1,2-diyl bis(2-methylpropanoate)]",20 to 100,100 to 1000,> 100,,
C[C@]1(CCc2cc(F)c3cc(Cl)c(N)nc3c2)C[C@@H](n2ccc3c(N)nc(Cl)nc32)[C@H](O)[C@@H]1O [Compound 53],,,< 1,< 20,< 20
"Cc1ncnc2c1ccn2[C@@H]1C[C@](C)(CCc2cc(F)c3cc(Cl)c(N)nc3c2)[C@@H](O)[C@H]1O [Compound 32, (1S,2R,3S,5R)-3-(2-(2-amino-3-chloro-5-fluoroquinolin-7-yl)ethyl)-3-methyl-5-(4-methyl-7H-pyrrolo[2,3-d]pyrimidin-7-yl)cyclopentane-1,2-diol]",< 20,< 20,,,
C[C@]1(CCc2cc(F)c3cc(Cl)c(N)nc3c2)C[C@@H](c2ccc3c(N)ncnn23)[C@H](O)[C@@H]1O [Compound 57],,,< 1,,
COC[C@]1(CCc2ccc3cc(Br)c(N)nc3c2)C[C@@H](n2ccc3c(N)ncnc32)[C@H](O)[C@@H]1O [Compound 58],,,< 1,,
"Nc1ccc2ccc(CC[C@@]3(F)C[C@@H](n4ccc5c(N)ncnc54)[C@H](O)[C@@H]3O)cc2n1 [Compound 35, (1S,2S,3R,5R)-5-(4-amino-7H-pyrrolo[2,3-d]pyrimidin-7-yl)-3-(2-(2-aminoquinolin-7-yl)ethyl)-3-fluorocyclopentane-1,2-diol]",< 20,< 20,,,
C[C@]1(CCc2ccc3cc(Br)c(N)nc3c2)C[C@@H](n2ccc3c(N)ncnc32)[C@H](O)[C@@H]1O [Compound 1],< 20,< 20,,,

# Next, values leading:
"EC50 (HepG2 hepatoma cells; Homo sapiens, 168 h) [nM]","EC50 ([1]; Homo sapiens, A549, 168 h) [nM]",IC50 (PRMT5/MEP50) [nM],EC50 (HepG2 hepatoma cells) [nM],EC50 [1] [nM],Compound
< 20,< 20,< 1,,,C[C@]1(CCc2ccc3ccc(N)nc3c2)C[C@@H](c2cnn3c(N)ncnc23)[C@H](O)[C@@H]1O [Compound 56]
< 20,< 20,< 1,,,"C[C@]1(CCc2ccc3ccc(N)nc3c2)C[C@@H](n2ccc3c(N)nccc32)[C@H](O)[C@@H]1O [Compound 38, (1S,2R,3S,5R)-5-(4-amino-1H-pyrrolo[3,2-c]pyridin-1-yl)-3-(2-(2-aminoquinolin-7-yl)ethyl)-3-methylcyclopentane-1,2-diol]"
< 20,< 20,< 1,,,"Nc1nc2cc(CC[C@@]3(F)C[C@@H](n4ccc5c(N)ncnc54)[C@H](O)[C@@H]3O)cc(F)c2cc1Cl [Compound 36, (1S,2S,3R,5R)-3-(2-(2-amino-3-chloro-5-fluoroquinolin-7-yl)ethyl)-5-(4-amino-7H-pyrrolo[2,3-d]pyrimidin-7-yl)-3-fluorocyclopentane-1,2-diol]"
< 20,< 20,< 1,,,"C[C@]1(CCc2cc(F)c3ccc(N)nc3c2)C[C@@H](n2ccc3c(N)ncnc32)[C@H](O)[C@@H]1O [Compound 37, (1S,2R,3S,5R)-3-(2-(2-amino-5-fluoroquinolin-7-yl)ethyl)-5-(4-amino-7H-pyrrolo[2,3-d]pyrimidin-7-yl)-3-methylcyclopentane-1,2-diol]"
,,< 1,< 20,20 to 100,Cn1c(N)nc2cc(CC[C@@]3(C)C[C@@H](n4ccc5c(N)ncnc54)[C@H](O)[C@@H]3O)ccc2c1=O [Compound 29]
< 20,< 20,< 1,,,"C[C@]1(CCc2ccc3ccc(N)nc3c2)C[C@@H](n2ccc3c(N)ncc(F)c32)[C@H](O)[C@@H]1O [Compound 21, (1S,2R,3S,5R)-5-(4-amino-7-fluoro-pyrrolo[3,2-c]pyridin-1-yl)-3-[2-(2-amino-7-quinolyl)ethyl]-3-methyl-cyclopentane-1,2-diol]"
,,< 1,< 20,< 20,C[C@]1(CCc2ccc3cc(Cl)c(N)nc3c2)C[C@@H](n2ccc3c(N)ncnc32)[C@H](O)[C@@H]1O [Compound 18]
,,< 1,< 20,< 20,C[C@]1(CCc2ccc3cc(C(F)F)c(N)nc3c2)C[C@@H](n2ccc3c(N)ncnc32)[C@H](O)[C@@H]1O [Compound 23]
20 to 100,< 20,< 1,,,"C[C@]1(CCc2cc(F)c3cc(Cl)c(N)nc3c2)C[C@@H](n2cc(F)c3c(N)nccc32)[C@H](O)[C@@H]1O [Compound 43, (1S,2R,3S,5R)-3-(2-(2-amino-3-chloro-5-fluoroquinolin-7-yl)ethyl)-5-(4-amino-3-fluoro-1H-pyrrolo[3,2-c]pyridin-1-yl)-3-methylcyclopentane-1,2-diol]"
100 to 1000,20 to 100,< 1,,,C[C@]1(CCCCc2cccc(N)n2)C[C@@H](n2ccc3c(N)ncnc32)[C@H](O)[C@@H]1O [Compound 47]
100 to 1000,100 to 1000,< 1,,,"C[C@]1(CCCCc2ccc(Cl)c(N)n2)C[C@@H](n2ccc3c(N)ncnc32)[C@H](O)[C@@H]1O [Compound 46, (1S,2R,3S,5R)-3-(4-(6-amino-5-chloropyridin-2-yl)butyl)-5-(4-amino-7H-pyrrolo[2,3-d]pyrimidin-7-yl)-3-methylcyclopentane-1,2-diol]"
,,< 1,20 to 100,100 to 1000,C[C@]1(CCc2ccc3cc(Cl)c(N)nc3c2)C[C@@H](n2ccc3c(N)ncnc32)[C@H](O)[C@]1(C)O [Compound 28]
< 20,< 20,< 1,,,"C[C@]1(CCc2cc(F)c3ccc(N)nc3c2)C[C@@H](n2ccc3c(N)ncc(F)c32)[C@H](O)[C@@H]1O [Compound 42, (1S,2R,3S,5R)-3-(2-(2-amino-5-fluoroquinolin-7-yl)ethyl)-5-(4-amino-7-fluoro-1H-pyrrolo[3,2-c]pyridin-1-yl)-3-methylcyclopentane-1,2-diol]"
100 to 1000,≥ 1000,< 1,,,"C[C@]1(CCc2ccc3cc4c(nc3c2)NC(=O)CO4)C[C@@H](n2ccc3c(N)ncnc32)[C@H](O)[C@@H]1O [Compound 31, 7-(2-((1S,2R,3S,4R)-4-(4-amino-7H-pyrrolo[2,3-d]pyrimidin-7-yl)-2,3-dihydroxy-1-methylcyclopentyl)ethyl)-2H-[1,4]oxazino[3,2-b]quinolin-3(4H)-one]"
< 20,< 20,< 1,,,C#C[C@]1(CCc2cc(F)c3cc(Cl)c(N)nc3c2)C[C@@H](n2ccc3c(N)ncnc32)[C@H](O)[C@@H]1O [Compound 52]
